Where two headings read alike, the source gives them in different places.
Legend:
ACE-2 [1] = target: ACE-2 (Rattus norvegicus, UniProt Q5EGZ1); assay: ACE-2 Competitive Substrate Assay, rat ACE-2; format: biochemical; conditions: Ki class; compounds tested in 5% DMSO, 12 compound concentrations
ACE-2 [2] = target: T1, ACE-2 (Homo sapiens, UniProt Q9BYF1); assay: ACE-2 Competitive Substrate Assay (ACS Assay); format: biochemical
T1 construct: a stop codon inserted after the serine immediately preceding the transmembrane domain; made in house; host or cells: CHO K1 cells (transient transfection, purified from conditioned medium)
T1 sequence (Q9BYF1 18-740 limits assumed): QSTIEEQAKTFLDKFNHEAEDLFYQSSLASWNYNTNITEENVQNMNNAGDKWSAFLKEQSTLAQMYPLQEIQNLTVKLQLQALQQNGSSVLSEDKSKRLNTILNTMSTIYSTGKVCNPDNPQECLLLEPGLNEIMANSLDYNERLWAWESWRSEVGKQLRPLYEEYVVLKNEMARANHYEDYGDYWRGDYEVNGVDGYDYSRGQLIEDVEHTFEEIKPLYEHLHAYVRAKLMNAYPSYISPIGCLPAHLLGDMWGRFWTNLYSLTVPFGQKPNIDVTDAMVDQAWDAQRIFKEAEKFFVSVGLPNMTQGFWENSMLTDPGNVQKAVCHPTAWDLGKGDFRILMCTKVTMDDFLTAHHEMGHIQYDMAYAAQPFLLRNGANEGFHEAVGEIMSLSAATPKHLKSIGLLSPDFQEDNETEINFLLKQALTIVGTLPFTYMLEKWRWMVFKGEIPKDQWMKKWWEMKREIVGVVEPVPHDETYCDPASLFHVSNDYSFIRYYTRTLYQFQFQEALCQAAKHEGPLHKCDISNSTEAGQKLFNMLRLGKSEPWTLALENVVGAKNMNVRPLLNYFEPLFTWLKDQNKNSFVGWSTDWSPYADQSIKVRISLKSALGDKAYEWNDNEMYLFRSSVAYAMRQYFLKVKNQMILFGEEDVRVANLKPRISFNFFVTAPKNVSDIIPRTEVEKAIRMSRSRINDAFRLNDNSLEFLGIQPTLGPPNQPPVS

ACE (Sigma, A2580) = target: T2, ACE (Sigma, A2580) (Sus scrofa, UniProt F1RRW5); assay: ACE enzymatic activity assay; format: biochemical, porcine; conditions: Ki class; compounds tested in 5% DMSO, 12 compound concentrations
T2 construct: ACE from porcine kidney; purchased Sigma A2580; host or cells: porcine kidney
T2 sequence (F1RRW5 34-1309): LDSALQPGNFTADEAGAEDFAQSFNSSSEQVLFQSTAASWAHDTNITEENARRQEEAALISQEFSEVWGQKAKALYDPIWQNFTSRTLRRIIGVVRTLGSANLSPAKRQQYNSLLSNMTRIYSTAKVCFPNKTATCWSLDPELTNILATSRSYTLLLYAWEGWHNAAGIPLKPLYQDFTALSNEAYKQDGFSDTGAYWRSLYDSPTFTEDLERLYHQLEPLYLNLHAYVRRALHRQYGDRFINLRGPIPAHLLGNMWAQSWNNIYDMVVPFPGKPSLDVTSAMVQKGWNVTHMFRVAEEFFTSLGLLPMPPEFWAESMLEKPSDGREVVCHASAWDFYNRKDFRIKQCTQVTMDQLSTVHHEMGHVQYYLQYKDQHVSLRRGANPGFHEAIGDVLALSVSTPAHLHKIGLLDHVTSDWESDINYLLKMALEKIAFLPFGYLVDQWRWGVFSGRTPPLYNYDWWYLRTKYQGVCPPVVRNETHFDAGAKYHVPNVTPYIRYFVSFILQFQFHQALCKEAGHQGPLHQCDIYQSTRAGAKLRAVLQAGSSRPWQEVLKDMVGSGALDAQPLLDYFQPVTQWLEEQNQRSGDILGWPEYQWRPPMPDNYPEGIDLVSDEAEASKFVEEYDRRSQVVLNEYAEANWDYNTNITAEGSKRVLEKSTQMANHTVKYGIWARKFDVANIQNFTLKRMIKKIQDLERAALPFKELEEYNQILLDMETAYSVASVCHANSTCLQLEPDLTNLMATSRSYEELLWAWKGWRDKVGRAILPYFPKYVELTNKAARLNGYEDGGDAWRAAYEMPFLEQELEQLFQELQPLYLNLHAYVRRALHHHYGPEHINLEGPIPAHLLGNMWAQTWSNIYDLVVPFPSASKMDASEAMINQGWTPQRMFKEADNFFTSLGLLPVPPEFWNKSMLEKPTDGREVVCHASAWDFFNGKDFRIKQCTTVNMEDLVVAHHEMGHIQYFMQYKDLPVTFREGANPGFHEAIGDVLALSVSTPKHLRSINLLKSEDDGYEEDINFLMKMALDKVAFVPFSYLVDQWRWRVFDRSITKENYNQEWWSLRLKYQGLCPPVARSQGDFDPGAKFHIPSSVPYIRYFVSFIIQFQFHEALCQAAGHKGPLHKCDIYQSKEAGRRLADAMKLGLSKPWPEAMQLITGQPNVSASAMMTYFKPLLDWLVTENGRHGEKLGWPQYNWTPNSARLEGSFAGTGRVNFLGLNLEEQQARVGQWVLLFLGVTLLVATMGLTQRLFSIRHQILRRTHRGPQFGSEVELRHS
Procedure, shortened: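 Fluorogenic substrate cleavage by 1 nM ACE, read at 320/405 nm after EDTA stop at ~30 min. Reactions at 25 °C, pH 7.5, in HEPES/NaCl/Brij-35 buffer; compounds tested at 12 concentrations in 5% DMSO.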

Carboxypeptidase A = target: T3, Carboxypeptidase A (Bos taurus, UniProt P00730); assay: Carboxypeptidase A activity assay; format: biochemical; conditions: Ki class; compounds tested in 5% DMSO, 12 compound concentrations
T3 sequence (P00730 111-419): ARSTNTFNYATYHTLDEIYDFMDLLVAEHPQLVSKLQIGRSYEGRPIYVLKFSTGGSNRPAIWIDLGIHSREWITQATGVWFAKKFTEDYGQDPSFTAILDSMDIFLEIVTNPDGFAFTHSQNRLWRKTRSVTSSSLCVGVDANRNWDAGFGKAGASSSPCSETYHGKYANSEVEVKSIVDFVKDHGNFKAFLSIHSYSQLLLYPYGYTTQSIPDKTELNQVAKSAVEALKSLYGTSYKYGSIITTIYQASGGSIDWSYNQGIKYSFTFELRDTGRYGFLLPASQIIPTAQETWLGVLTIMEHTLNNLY
Procedure, shortened: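 Ki obtained by correcting apparent Ki for substrate, Ki=Kiapp/(1+[S]/Km), from 12-concentration series. Enzyme activity read by absorbance at 328 nm with 5% DMSO present, EDTA stop.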

[3] = Pharmacokinetic profile in BBZDR rats (plasma samples); format: in vivo, rat (BBZDR); conditions: 100 and 300 mg/kg/day oral gavage, 0-24 hours after dosing
Description: To determine the pharmacokinetic profile of Compound HE, plasma samples were taken at 0, 0.5, 1, 2, 4, 8, 12, and 24 hours after dosing in both Compound HE dose groups.

ACE-2 (Rattus norvegicus, UniProt Q5EGZ1), sequence (Q5EGZ1 18-805): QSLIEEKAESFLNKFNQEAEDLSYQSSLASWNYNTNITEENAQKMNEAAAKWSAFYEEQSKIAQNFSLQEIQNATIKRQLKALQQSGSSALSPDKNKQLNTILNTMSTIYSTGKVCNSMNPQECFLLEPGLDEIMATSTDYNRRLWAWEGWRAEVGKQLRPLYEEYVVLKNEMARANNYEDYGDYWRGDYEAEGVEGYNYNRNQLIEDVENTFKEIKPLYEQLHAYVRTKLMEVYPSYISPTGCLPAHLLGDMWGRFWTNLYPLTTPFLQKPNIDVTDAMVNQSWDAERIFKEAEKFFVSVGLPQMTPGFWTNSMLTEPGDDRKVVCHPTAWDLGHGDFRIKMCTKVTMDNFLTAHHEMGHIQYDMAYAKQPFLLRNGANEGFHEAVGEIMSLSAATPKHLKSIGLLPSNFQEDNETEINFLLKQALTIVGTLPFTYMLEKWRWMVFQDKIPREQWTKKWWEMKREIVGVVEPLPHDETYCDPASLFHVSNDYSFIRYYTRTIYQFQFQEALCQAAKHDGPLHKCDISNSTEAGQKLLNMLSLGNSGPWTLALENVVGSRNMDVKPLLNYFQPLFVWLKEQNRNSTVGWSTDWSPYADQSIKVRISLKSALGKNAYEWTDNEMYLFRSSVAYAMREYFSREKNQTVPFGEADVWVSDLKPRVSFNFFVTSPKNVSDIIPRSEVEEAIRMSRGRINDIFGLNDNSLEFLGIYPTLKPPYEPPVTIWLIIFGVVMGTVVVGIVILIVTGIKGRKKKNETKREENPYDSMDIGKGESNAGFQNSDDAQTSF

CC(C)CC(N[C@@H](Cc1cncn1Cc1cc(Cl)cc(Cl)c1)C(=O)O)C(=O)O (single isomer, unassigned) [HE, 2-[1-Carboxy-2-[3-(3,5-dichloro-benzyl)-3H-imidazol-4-yl]-ethylamino)4-methyl-pentanoic acid]
Ki (ACE-2 [1]): < 0.1 µM
Ki (ACE-2 [2]; Ki class, compounds tested in 5% DMSO, 12 compound concentrations, Ki=Kiapp/(1+[S]/Km), read-out: Human ACE-2 Activity): < 0.1 µM
Ki (ACE-2 [2]; Table 3, very good ACE-2 inhibiting compounds, species not given, read-out: ACE-2 Activity, Ki): < 0.05 µM
Ki (ACE (Sigma, A2580)): 10 to 50 µM
Ki (Carboxypeptidase A): 10 to 50 µM
systemic exposure (plasma levels) [3]: relatively low systemic levels
